{
  "source": "paper PMC5845353",
  "about": "“The selective cathepsin K inhibitor MIV-711 attenuates joint pathology in experimental animal models of osteoarthritis” (Journal of Translational Medicine, 2018)",
  "key": {"[1]": {"test_system": "dogs subjected to partial medial meniscectomy", "test": "Dog partial medial meniscectomy study, gross macroscopic scoring", "type": "in vivo", "conditions": "MIV-711 30 µmol/kg", "excerpt": "The study design and animal usage were reviewed and approved by the IACUC at Preclinical Research Services (PCRS; Fort Collins, CO) for compliance with regulations before study initiation (IACUC Number 1021). Animal welfare, housing and research procedures for this study complied with the U.S. Department of Agriculture’s (USDA) Animal Welfare Act (9 CFR Parts 1, 2, and 3), the Guide for the Care and Use of Laboratory Animals, and PCRS Standard of Procedures. Thirty adult naïve female beagle dogs, with a weight of 7.5–11.3 kg and an age of approximately 6–8 months at study initiation, were used for this study. The dogs were acclimated for at least 7 days before study initiation.\nAt least 12 h before surgery, a fentanyl transdermal 2.5 mg patch was placed on the skin on the ventral aspect of the tail of each dog and secured into place with tape. The fentanyl patch delivered approximately 25 μg/h of analgesia for a total duration of 72–80 h. Dogs were also pre-medicated before surgery with glycopyrrolate (0.005–0.02 mg/kg), acepromazine (0.01–0.05 mg/kg) and morphine (0.5–1.0 mg/kg) injected subcutaneously. General anesthesia was induced using propofol (2–6 mg/kg) given intravenously; each dog was then intubated and maintained on isoflurane in oxygen (0.5–5%) administered to effect. The hair over the surgical site was clipped, and a preliminary aseptic prep of the area was done by alternating scrubs of chlorhexidine surgical scrub and sterile dry gauze sponges. A local anesthetic line block of lidocaine and bupivacaine (1.5 mg each) diluted in saline was administered at the incision site to provide local pre-emptive anesthesia. The limb was draped with a sterile fenestrated surgical drape. A small 2 cm medial parapatellar skin incision and a subsartorius capsular approach were made to expose the meniscus. For removal of the anterior one-half of the medial meniscus, the cranial meniscotibial ligament was incised, and the capsular attachments to the cranial pole of the meniscus were separated sharply with a scalpel under direct vision, sparing injury to the articular cartilage or the ACL. The medial meniscus was reflected medially with a hemostat. […] Animals were monitored closely throughout the recovery and post-operative period. […]\nAll animals were humanely euthanized on Day 29 to collect specimens for pathology. […] At study termination, the left (operated) knee was opened, disarticulated and the lesions on the medial tibia and femur measured, described and photographed. […] Lesions were classified as more severe or less severe depending on the intensity of India ink staining or perception of depth and areas for each calculated. Gross cartilage lesions were measured (length × width) and described as superficial, moderate, or deep. […]"}, "[2]": {"test_system": "rabbits subjected to anterior cruciate ligament transection (ACLT)", "test": "Rabbit ACLT study, modified Mankin scoring", "type": "in vivo", "description": "The femora and tibias were decalcified, embedded in paraffin, sectioned at 5-7 µm at two different levels separated by approximately 2 mm, and stained with safranin O and toluidine blue.\nBoth tibial plateaus and femoral condyles were subjected to semi-quantitative scoring using a modified Mankin scoring system. Slides were evaluated in animal ID order, i.e. in random order with respect to treatment, so that the reader was effectively blinded to treatment assignment.\nAnalysis was performed on the tibial plateaus and femoral condyles at two levels (Level 1 and 2) for each:\nGroup 1) sham + vehicle; Group 2) ACLT + vehicle; Group 3) ACLT + MIV-711, 30 µmol/kg (low dose) and Group 4) ACLT + MIV-711, 100 µmol/kg (high dose)."}, "[3]": {"conditions": "Group 3: ACLT + MIV-711, 30 µmol/kg (low dose)"}, "[4]": {"conditions": "Group 4: ACLT + MIV-711, 100 µmol/kg (high dose)"}},
  "data": [
    {"compound": "C#C[C@@H]1CN(C(=O)[C@H](CC(C)C)NC(=O)c2ccc(-c3nc(N4CCN(C)CC4)sc3F)cc2)[C@@H]2C(=O)CO[C@H]12", "note": "[MIV-711]", "values": [
      {"measurement": "Macroscopic score, Calculated", "setting": "[1]; Femur condyle", "value": "9.07 ± 4.78"},
      {"measurement": "Macroscopic score, Subjective", "setting": "[1]; Femur condyle", "value": "1.13 ± 0.32"},
      {"measurement": "Macroscopic score, Calculated", "setting": "[1]; Tibia plateau", "value": "23.88 ± 3.17"},
      {"measurement": "Macroscopic score, Subjective", "setting": "[1]; Tibia plateau", "value": "2.33 ± 0.21"},
      {"measurement": "effect on Mankin scores", "setting": "[2]; ACLT rabbits, 30 and 100 µmol/kg", "value": "did not affect"},
      {"measurement": "Total Mankin score Level 1+2_FC, mean", "setting": "[2]; [3]", "value": 58.86},
      {"measurement": "Total Mankin score Level 1+2_FC, median", "setting": "[2]; [3]", "value": 58.00},
      {"measurement": "Total Mankin score Level 1+2_LFC, mean", "setting": "[2]; [3]", "value": 21.14},
      {"measurement": "Total Mankin score Level 1+2_LFC, median", "setting": "[2]; [3]", "value": 17.00},
      {"measurement": "Total Mankin score Level 1+2_LTP, mean", "setting": "[2]; [3]", "value": 9.71},
      {"measurement": "Total Mankin score Level 1+2_LTP, median", "setting": "[2]; [3]", "value": 10.00},
      {"measurement": "Total Mankin score Level 1+2_MFC, mean", "setting": "[2]; [3]", "value": 37.71},
      {"measurement": "Total Mankin score Level 1+2_MFC, median", "setting": "[2]; [3]", "value": 43.00},
      {"measurement": "Total Mankin score Level 1+2_MTP, mean", "setting": "[2]; [3]", "value": 16.71},
      {"measurement": "Total Mankin score Level 1+2_MTP, median", "setting": "[2]; [3]", "value": 16.00},
      {"measurement": "Total Mankin score Level 1+2_TP, mean", "setting": "[2]; [3]", "value": 26.43},
      {"measurement": "Total Mankin score Level 1+2_TP, median", "setting": "[2]; [3]", "value": 26.00},
      {"measurement": "Total Mankin score Level 1_FC, mean", "setting": "[2]; [3]", "value": 32.14},
      {"measurement": "Total Mankin score Level 1_FC, median", "setting": "[2]; [3]", "value": 32.00},
      {"measurement": "Total Mankin score Level 1_LFC, mean", "setting": "[2]; [3]", "value": 12.00},
      {"measurement": "Total Mankin score Level 1_LFC, median", "setting": "[2]; [3]", "value": 10.00},
      {"measurement": "Total Mankin score Level 1_LTP, mean", "setting": "[2]; [3]", "value": 5.57},
      {"measurement": "Total Mankin score Level 1_LTP, median", "setting": "[2]; [3]", "value": 4.00},
      {"measurement": "Total Mankin score Level 1_MFC, mean", "setting": "[2]; [3]", "value": 20.14},
      {"measurement": "Total Mankin score Level 1_MFC, median", "setting": "[2]; [3]", "value": 23.00},
      {"measurement": "Total Mankin score Level 1_MTP, mean", "setting": "[2]; [3]", "value": 9.86},
      {"measurement": "Total Mankin score Level 1_MTP, median", "setting": "[2]; [3]", "value": 9.00},
      {"measurement": "Total Mankin score Level 1_TP, mean", "setting": "[2]; [3]", "value": 15.43},
      {"measurement": "Total Mankin score Level 1_TP, median", "setting": "[2]; [3]", "value": 16.00},
      {"measurement": "Total Mankin score Level 2_FC, mean", "setting": "[2]; [3]", "value": 26.71},
      {"measurement": "Total Mankin score Level 2_FC, median", "setting": "[2]; [3]", "value": 26.00},
      {"measurement": "Total Mankin score Level 2_LFC, mean", "setting": "[2]; [3]", "value": 9.14},
      {"measurement": "Total Mankin score Level 2_LFC, median", "setting": "[2]; [3]", "value": 7.00},
      {"measurement": "Total Mankin score Level 2_LTP, mean", "setting": "[2]; [3]", "value": 4.14},
      {"measurement": "Total Mankin score Level 2_LTP, median", "setting": "[2]; [3]", "value": 4.00},
      {"measurement": "Total Mankin score Level 2_MFC, mean", "setting": "[2]; [3]", "value": 17.57},
      {"measurement": "Total Mankin score Level 2_MFC, median", "setting": "[2]; [3]", "value": 20.00},
      {"measurement": "Total Mankin score Level 2_MTP, mean", "setting": "[2]; [3]", "value": 6.86},
      {"measurement": "Total Mankin score Level 2_MTP, median", "setting": "[2]; [3]", "value": 6.00},
      {"measurement": "Total Mankin score Level 2_TP, mean", "setting": "[2]; [3]", "value": 11.00},
      {"measurement": "Total Mankin score Level 2_TP, median", "setting": "[2]; [3]", "value": 12.00},
      {"measurement": "Total Mankin score Level 1+2_FC, mean", "setting": "[2]; [4]", "value": 49.71},
      {"measurement": "Total Mankin score Level 1+2_FC, median", "setting": "[2]; [4]", "value": 51.00},
      {"measurement": "Total Mankin score Level 1+2_LFC, mean", "setting": "[2]; [4]", "value": 21.14},
      {"measurement": "Total Mankin score Level 1+2_LFC, median", "setting": "[2]; [4]", "value": 21.00},
      {"measurement": "Total Mankin score Level 1+2_LTP, mean", "setting": "[2]; [4]", "value": 12.71},
      {"measurement": "Total Mankin score Level 1+2_LTP, median", "setting": "[2]; [4]", "value": 12.00},
      {"measurement": "Total Mankin score Level 1+2_MFC, mean", "setting": "[2]; [4]", "value": 28.57},
      {"measurement": "Total Mankin score Level 1+2_MFC, median", "setting": "[2]; [4]", "value": 27.00},
      {"measurement": "Total Mankin score Level 1+2_MTP, mean", "setting": "[2]; [4]", "value": 17.43},
      {"measurement": "Total Mankin score Level 1+2_MTP, median", "setting": "[2]; [4]", "value": 14.00},
      {"measurement": "Total Mankin score Level 1+2_TP, mean", "setting": "[2]; [4]", "value": 30.14},
      {"measurement": "Total Mankin score Level 1+2_TP, median", "setting": "[2]; [4]", "value": 27.00},
      {"measurement": "Total Mankin score Level 1_FC, mean", "setting": "[2]; [4]", "value": 25.43},
      {"measurement": "Total Mankin score Level 1_FC, median", "setting": "[2]; [4]", "value": 29.00},
      {"measurement": "Total Mankin score Level 1_LFC, mean", "setting": "[2]; [4]", "value": 10.57},
      {"measurement": "Total Mankin score Level 1_LFC, median", "setting": "[2]; [4]", "value": 10.00},
      {"measurement": "Total Mankin score Level 1_LTP, mean", "setting": "[2]; [4]", "value": 6.29},
      {"measurement": "Total Mankin score Level 1_LTP, median", "setting": "[2]; [4]", "value": 7.00},
      {"measurement": "Total Mankin score Level 1_MFC, mean", "setting": "[2]; [4]", "value": 14.86},
      {"measurement": "Total Mankin score Level 1_MFC, median", "setting": "[2]; [4]", "value": 15.00},
      {"measurement": "Total Mankin score Level 1_MTP, mean", "setting": "[2]; [4]", "value": 9.29},
      {"measurement": "Total Mankin score Level 1_MTP, median", "setting": "[2]; [4]", "value": 8.00},
      {"measurement": "Total Mankin score Level 1_TP, mean", "setting": "[2]; [4]", "value": 15.57},
      {"measurement": "Total Mankin score Level 1_TP, median", "setting": "[2]; [4]", "value": 16.00},
      {"measurement": "Total Mankin score Level 2_FC, mean", "setting": "[2]; [4]", "value": 24.29},
      {"measurement": "Total Mankin score Level 2_FC, median", "setting": "[2]; [4]", "value": 23.00},
      {"measurement": "Total Mankin score Level 2_LFC, mean", "setting": "[2]; [4]", "value": 10.57},
      {"measurement": "Total Mankin score Level 2_LFC, median", "setting": "[2]; [4]", "value": 10.00},
      {"measurement": "Total Mankin score Level 2_LTP, mean", "setting": "[2]; [4]", "value": 6.43},
      {"measurement": "Total Mankin score Level 2_LTP, median", "setting": "[2]; [4]", "value": 6.00},
      {"measurement": "Total Mankin score Level 2_MFC, mean", "setting": "[2]; [4]", "value": 13.71},
      {"measurement": "Total Mankin score Level 2_MFC, median", "setting": "[2]; [4]", "value": 13.00},
      {"measurement": "Total Mankin score Level 2_MTP, mean", "setting": "[2]; [4]", "value": 8.14},
      {"measurement": "Total Mankin score Level 2_MTP, median", "setting": "[2]; [4]", "value": 7.00},
      {"measurement": "Total Mankin score Level 2_TP, mean", "setting": "[2]; [4]", "value": 14.57},
      {"measurement": "Total Mankin score Level 2_TP, median", "setting": "[2]; [4]", "value": 14.00}
    ]}
  ]
}
